Earlier results, collected in US8846088B2, “Melt granulation of a composition containing a calcium-containing compound” (Takeda Nycomed AS, priority 2005, dated 2014).

Tested on: elderly patients
Conditions: annual injections of 150.000-300.000 IU

## vitamin D
  overall fracture rate: significant reduction in overall fracture rate
  rate of hip fracture: not in the rate of hip fracture
